Measured values published in article PMC8469962, “Unusual Bicyclo[3.2.1]Octanoid Neolignans from Leaves of Piper crocatum and Their Effect on Pyruvate Dehydrogenase Activity” (Plants, 2021).
Entries after “also recorded” stand apart in the source; their conditions may differ.

Tested on: PDHE1α S300 phosphorylation
Experiment: Pyruvate dehydrogenase complex (PDH) cellular activity: immunofluorescence of p-PDH E1α (Ser300) in AD-293 cells
Format: cell-based, Human
Details: for IC50: Homo sapiens, AD293, 24 h incubation, normalized to 5 mM DCA control, read-out: IC50, inhibition of PDHE1α S300 phosphorylation; for inhibition of phosphorylation of E1α S300 in fluorescent images, compared with DCA: compounds at 60 µM, DCA at 5 mM
Procedure: Point two percent gelatin was added to a black 96-well plate with a clear bottom and incubated for 1 h. Afterwards, the plate was washed with growth media. Human AD-293 cells, derived from the HEK293 cells, were seeded into black 96-well plates with a clear bottom and grown for 24 h. Compounds were then added and incubated for 24 h. The cells were then fixed with 2% paraformaldehyde, and permeabilized anti-PDHE1 pSer300 (Merk Millipore, Burlington, MA, AP1064) was added and incubated overnight. Next, the cells were washed and Alexa fluor 488, goat anti-rabbit ab (Invitrogen, Waltham, MA, A11008) was added with Hoechst 33,258 (Invitrogen, H3569) and incubated for 2 h. Finally, cells were washed, and the plates were measured in Operetta (PerkinElmer, Waltham, MA). The raw data were normalized for the pharmacological inhibitor control (5 mM dichloroacetate (DCA)) and percentage effect values using the software package Harmony High-Content Imaging and Analysis Software 3.1. Dose response curves were generated by plotting the percentage effect values and IC50 values were calculated via GraphPad Prism 6.

C=CCC12C=C(OC)C(=O)C(OC)(C(c3cc(OC)c(OC4OC(CO)C(O)C(O)C4O)c(OC)c3)C1C)C2O [Compound 2, (1′R,2′R,3′S,7S,8R)-∆^5′^,8′-2′-hydroxy-3,5,3′,5′-tetramethoxyl-4′-oxo-8.1′7.3′-neolignan-4-O-β-D-glucopyranoside]
IC50: 99.8 µM
inhibition of phosphorylation of E1α S300 in fluorescent images, compared with DCA: better effect than that of dichloroacetate (DCA); also recorded: better inhibitory effect of compound 2 than that of compound 3 and DCA

C=CCC1=CC2(OC)C(C)C(c3cc(OC)c(OC4OC(CO)C(O)C(O)C4O)c(OC)c3)C(OC)(C1=O)C2O [Compound 3, (1′R,2′S,3′R,7S,8R)-∆^5′^8′-2′-hydroxy-3,5,1′,3′-tetramethoxyl-4′-oxo-8.1′7.3′-neolignan-4-O-β-D-glucopyranoside]
IC50: 80.2 µM
inhibition of phosphorylation of E1α S300 in fluorescent images, compared with DCA: better effect than that of dichloroacetate (DCA)
